Measured values as given in patent US20140296137A1, “METHODS AND COMPOSITIONS FOR CONTROLLING ROTIFERS” (Los Alamos National Security, LLC, priority 2013, published 2014).
Like-named read-outs stand apart in the source and are kept apart here. Ends that are not written are not given here.

Tests used:
[1] = test system: Chlamydomonas reinhardtii
Method: (§1) This example provides the minimal inhibitory concentration (MIC) of antimicrobial peptides (AMPs) for algae. […] Therefore, the tolerance of algae to the AMPs listed in Table 2 of Example 1 was measured.
(§2) Briefly, the algae viability assay used herein measured the “health” of the algae cultures by looking at the color of the algae. […] A visual assay was used to determine the MIC for the individual AMPs on the algae. In each case, a light microscope with 20× magnification was used to observe algae color.
(§3) The effect of insecticidal and non-insecticidal AMPs on three different algae species was measured. The three algae species were Auxenochlorella protothecoides, Chlorella sorokiniana and Chlamydomonas reinhardtii.
(§4) Algae cultures were initiated in 96-well plates at an OD 750 of approximately 0.1. […] The antibiotics hygromycin and paromycin served as positive controls for inhibiting and/or reducing the growth rate of algae. […] The algae cultures were monitored by preparing microscopy slides with a small sample taken from the individual wells. The algae slides were then visualized under a 20× magnification microscope for algae viability as measured by algae color.

Chlorella protothecoides = test system: Chlorella protothecoides
Method: as §1, §2, §3, §4

Chlorella sorokiniana = test system: Chlorella sorokiniana
Method: as §1, §2, §3, §4

Adineta vaga = type: in vivo; parameters: key to the marks not given beside the values; conditions: AMP 0.5 mg/mL, 24 hr time point, room temperature, visual motility score
Description: (§5) Briefly, the rotifer motility assay used herein in the presence of a biocontrol agent (e.g., AMP) may be used as a measure of relative rotifer viability and competency. Rotifer diet, of which algae is considered to be an important food source, is one of the key environmental factors that impact the growth and multiplication of rotifers. In effect, the inability of a rotifer to be mobile (i.e., inability to swim toward a food source and/or to have mobile cilia that help trap food) prevents the rotifer from ingesting sufficient nutrients to further grow and reproduce. Thus, any approach that reduces and/or inhibits rotifer motility has a significant impact on an individual rotifer and therefore rotifer populations. With respect to algae cultures, reducing and/or inhibiting rotifer motility prevents and/or reduces any negative impact rotifers have on algae cultures (e.g., open pond systems for algae biomass and biofuel production). In other words, reducing and/or inhibiting rotifer motility reduces and/or prevents rotifers (e.g., infestations) from ingesting and consequently damaging algae cultures use in biofuel production.
(§6) The effect of the insecticidal and non-insecticidal AMPs of Table 2 (Example 1) on three different rotifer species was measured. The three rotifer species were Adineta vaga and Philodina acuticornis (class Bdelloid rotifers), and Brachionus (Monogononta class). A visual motility assay was used to determine the impact of the individual AMPs on rotifer viability. In each case, a light microscope with 20× magnification was used to observe rotifer motility (activity). […] FIGS. 1A, 1C and 1E show a 20× magnification of Adineta vaga, Philodina acuticornis and Brachionus (untreated), respectively. FIGS. 1B, 1D and 1F show a 20× magnification of Adineta vaga, Philodina acuticornis and Brachionus (AMP treated), respectively.
(§7) Rotifer cultures were initiated in 12-well or 24-well plates at a density of approximately 100-200 rotifers/mL. The 12-well plates contained a volume of 1 mL per well, and the 24-well plates contained a volume of about 0.25 mL to about 0.35 mL per well. Individual rotifer cultures (individual wells) were incubated with a select AMP at a concentration of 0.5 mg/mL (or a range of about 78 μM to about 365 μM) for 18, 21 and 24 hours at room temperature. The rotifer cultures were monitored by preparing microscopy slides with a small sample taken from the individual wells. The slides were then visualized under a 20× magnification microscope for rotifer motility. […] The scoring system was based on observing a subset of the rotifer population from each well. The impact on the subset of rotifers observed served as a representative of the impact on the entire rotifer population for that particular AMP treatment.
(§8) A summary of the motility assay (or “Kill Assay”) for each insecticidal and non-insecticidal AMP incubated with the three different rotifer species for the 24 hour time point is provided below in Table 5 (insecticidal AMPs) and Table 6 (non-insecticidal AMPs). The 18 and 21 hour time points gave similar results to the 24 hour time point.

Philodina acuticornis = type: in vivo; parameters: key to the marks not given beside the values; conditions: AMP 0.5 mg/mL, 24 hr time point, room temperature, visual motility score
Description: as §5, §6, §7, §8

Brachionus = type: in vivo; conditions: AMP 0.5 mg/mL, 24 hr time point, room temperature, visual motility score
Description: as §5, §6, §7, §8

[2] = 5-6 days, room temperature, 96-well, algae colour under 20× microscope, ND = AMP killed all the algae

| Compound | Minimal Inhibitory Concentration (MIC) Chlamydomonas reinhardtii [1, 2] | Minimal Inhibitory Concentration (MIC) Chlorella protothecoides (Chlorella protothecoides; [2]) | Minimal Inhibitory Concentration (MIC) Chlorella sorokiana (Chlorella sorokiniana; [2]) [µM] | “Kill” Efficiency Adineta vaga (Adineta vaga) | “Kill” Efficiency Philodina (Philodina acuticornis) | “Kill” Efficiency Brachionus (Brachionus) | Minimal Inhibitory Concentration (MIC) Chlamydomonas reinhardtii [1] [µM] | Minimal Inhibitory Concentration (MIC) Chlorella protothecoides (Chlorella protothecoides) [µM] | Minimal Inhibitory Concentration (MIC) Chlorella sorokiana (Chlorella sorokiniana) [µM] |
| --- | --- | --- | --- | --- | --- | --- | --- | --- | --- |
| FSFKRLKGFAKKLWNSKLARKIRTKGLKYVKNFAKDMLSEGEEAPPAAEPPVEAPQ [Im-1] | 9.9 µM | 9.9 µM | 19.7 | +++ | +++ | +++ | – | – | – |
| CC[C@H](C)[C@H](NC(=O)CN)C(=O)NCC(=O)N[C@@H](C)C(=O)N[C@H](C(=O)N[C@@H](CC(C)C)C(=O)N[C@@H](CCCCN)C(=O)N[C@H](C(=O)N[C@@H](CC(C)C)C(=O)N[C@H](C(=O)N[C@H](C(=O)NCC(=O)N[C@@H](CC(C)C)C(=O)N1CCC[C@H]1C(=O)N[C@@H](C)C(=O)N[C@@H](CC(C)C)C(=O)N[C@H](C(=O)N[C@@H](CO)C(=O)N[C@@H](Cc1c[nH]c2ccccc12)C(=O)N[C@H](C(=O)N[C@@H](CCCCN)C(=O)N[C@@H](CCCNC(=N)N)C(=O)N[C@@H](CCCCN)C(=O)N[C@@H](CCCNC(=N)N)C(=O)N[C@@H](CCC(N)=O)C(=O)N[C@@H](CCC(N)=O)C(N)=O)[C@@H](C)CC)[C@@H](C)CC)[C@@H](C)O)[C@@H](C)O)C(C)C)C(C)C [Melittin] | ND (kills) | 11 µM | 11 | +++ | +++ | – | – | – | – |
| FFHHIFRGIVHVGKTIHRLVTG [Piscidin 1] | – | – | – | +++ | +++ | +++ | 12.2 | 12.2 | 24.3 |
| KWKLFKKIEKVGQNIRDGIIKAGPAVAVVGQATQIAK [Cecropin A] | 15.6 µM | 124.9 µM | 124.9 | +++ | ++ | – | – | – | – |
| MASRHMFLPLIGRVLSGIL [MsrA3] | 29.6 µM | 59.2 µM | – | +++ | +++ | + | – | – | – |
| DFKDWMKTAGEWLKKKGPGILKAAMAAAT [Ponericin G4] | 19.8 µM | 158 µM | 79 | – | – | – | – | – | – |
| FWGALIKGAAKLIPSVVGLFKKKQ [Ponericin W5] | 12 µM | 12 µM | 24 | +++ | +++ | +++ | – | – | – |
| KWKLFKKIGIGKFLHWAKKF [W16-CA(1-8)-MA(1-12)] | 12.5 µM | ND (kills) | 25 | +++ | +++ | + | – | – | – |
| LLKELWTKIKGAGKAVLGKIKGLL [Ponericin L2] | 12.1 µM | 48.5 µM | 97 | +++ | +++ | – | – | – | – |
| GLVDVLGKVGGLIKKLLP [Ponericin G6] | 17.2 µM | 274.9 µM | 274.9 | – | – | +++ | – | – | – |
| FIHHIFRGIVHAGRSIGRFLTG [Piscidin 3] | – | – | – | +++ | +++ | +++ | – | – | 100.3 |
| GFGSLFKFLAKKVAKTVAKQAAKQGAKYVANKHME [Cupiennin 1D] | 32.9 µM | 16.5 µM | 65.9 | +++ | +++ | – | – | – | – |
| GIWGTALKWGVKLLPKLVGMAQTKKQ [Ponericin W4] | 11 µM | 43.8 µM | 87.6 | +++ | +++ | +++ | – | – | – |
| GWKDWLNKGKEWLKKKGPGIMKAALKAATQ [Ponericin G3] | 9.2 µM | 37 µM | 37 | +++ | +++ | +++ | – | – | – |
| WLGSALKIGAKLLPSVVGLFKKKKQ [Ponericin W1] | 11.5 µM | 23.1 µM | 46.1 | +++ | +++ | +++ | – | – | – |
| GIWGTLAKIGIKAVPRVISMLKKKKQ [Ponericin W3] | 5.5 µM | 21.8 µM | 87.3 | +++ | +++ | +++ | – | – | – |
| GWKDWAKKAGGWLKKKGPGMAKAALKAAMQ [Ponericin G1] | 19.5 µM | 78 µM | 155.8 | +++ | +++ | +++ | – | – | – |
| FFHHIFRGIVHVGKTIHKLVTG [Piscidin 2] | – | 24.6 µM | – | +++ | +++ | +++ | – | – | 24.6 |
| GIGKFLHSAKKFGKAFVGEIMNS [Magainin 2] | – | – | – | +++ | +++ | + | – | – | 50.7 |
| IWLTALKFLGKHAAKHLAKQQLSKL [Lycotoxin-1, Lycotoxin I] | 22 µM | 44 µM | 88 | +++ | +++ | +++ | – | – | – |
